Consider `CCOC(=O)C(Cc1ccccc1)NC(=O)c1ccc(O)c(NC(=O)C(=O)Nc2cc(Cl)cc(Cl)c2O)c1` (stereo in doubt) [Example 32, 2(2R)-{3-[(3,5-Dichloro-2-hydroxy-phenylaminooxalyl)-amino]-4-hydroxy-benzoylamino}-3-phenyl-propionic acid ethyl ester], for which the melting point (as a rule, the temperature of the solid-liquid transition) was 254 °C.

In turn, `CN1CCN(CCCNC(=O)c2ccc(O)c(NC(=O)C(=O)Nc3cc(Cl)cc(Cl)c3O)c2)CC1` [Example 30, N-(3,5-Dichloro-2-hydroxy-phenyl)-N′-{2-hydroxy-5-[3-(4-methyl-piperazin-1-yl)-propylcarbamoyl]-phenyl}-oxalamide] had a melting point of 232 °C.

On to `O=C(Nc1ccc(C(=O)O)cc1O)C(=O)Nc1cc(Cl)cc(Cl)c1O` [Example 24, 4-[(3,5-Dichloro-2-hydroxy-phenylaminooxalyl)-amino]-3-hydroxy-benzoic Acid], for which the melting point was determined as 323 °C.

On to `O=C(Nc1cc(Cl)ccc1O)C(=O)Nc1cc(Cl)cc(Cl)c1O` [Example 7, N-(5-Chloro-2-hydroxy-phenyl)-N′-(3,5-dichloro-2-hydroxy-phenyl)-oxalamide], for which the melting point worked out at 311 °C.

As to `O=C(Nc1cccc(Cl)c1O)C(=O)Nc1cc(Cl)cc(Cl)c1O` [Example 19, N-(3-Chloro-2-hydroxy-phenyl)-N′-(3,5-dichloro-2-hydroxy-phenyl)-oxalamide], the melting point is 296 °C.

`CCOC(=O)c1ccc(O)c(NC(=O)C(=O)Nc2cc(Cl)cc(Cl)c2O)c1` [Example 25, 3-[(3,5-Dichloro-2-hydroxy-phenylaminooxalyl)-amino]-4-hydroxy-benzoic Acid Ethyl Ester] displayed a melting point of 270 °C.

In turn, `O=C(Nc1cc(F)ccc1O)C(=O)Nc1cc(Cl)cc(Cl)c1O` [Example 18, N-(3,5-Dichloro-2-hydroxy-phenyl)-N′-(5-fluoro-2-hydroxy-phenyl)-oxalamide] registered a melting point of 297 °C.

On to `COC(=O)c1ccc(NC(=O)C(=O)Nc2cc(Cl)cc(Cl)c2O)c(O)c1` [Example 12, 4-[(3,5-Dichloro-2-hydroxy-phenylaminooxalyl)-amino]-3-hydroxy-benzoic Acid Methyl Ester], for which the melting point turned out to be 271 °C.

Consider `O=C(Nc1cc(C(F)(F)F)ccc1O)C(=O)Nc1cc(Cl)cc(Cl)c1O` [Example 21, N-(3,5-Dichloro-2-hydroxy-phenyl)-N′-(2-hydroxy-5-trifluoromethyl-phenyl)-oxalamide], for which the melting point was found to be 281 °C.

As for `O=C(Nc1cc(C(=O)NCCCn2ccnc2)ccc1O)C(=O)Nc1cc(Cl)cc(Cl)c1O` [Example 36, N-(3,5-Dichloro-2-hydroxy-phenyl)-N′-[2-hydroxy-5-(3-imidazol-1-yl-propylcarbamoyl)-phenyl]-oxalamide], the melting point came out at 175 °C.

`CN(C)CCCNC(=O)c1ccc(O)c(NC(=O)C(=O)Nc2cc(Cl)cc(Cl)c2O)c1` [Example 35, N-(3,5-Dichloro-2-hydroxy-phenyl)-N′-[5-(3-dimethylamino-propylcarbamoyl)-2-hydroxy-phenyl]-oxalamide]: the melting point turned out to be 205 °C.

Take `CN1CCCC1CCNC(=O)c1ccc(O)c(NC(=O)C(=O)Nc2cc(Cl)cc(Cl)c2O)c1` (racemic) [Example 34, N-(3,5-Dichloro-2-hydroxy-phenyl)-N′-{2-hydroxy-5-[2-(1-methyl-pyrrolidin-2-yl)-ethylcarbamoyl]-phenyl}-oxalamide (Racemic)]: the melting point is 220 °C.

Turning to `COc1ccc(O)c(NC(=O)C(=O)Nc2cc(Cl)cc(Cl)c2O)c1` [Example 17, N-(3,5-Dichloro-2-hydroxy-phenyl)-N′-(2-hydroxy-5-methoxy-phenyl)-oxalamide], the melting point was 273 °C.

In turn, `Cc1ccc(NC(=O)C(=O)Nc2cc(Cl)cc(Cl)c2O)c(O)c1` [Example 3, N-(3,5-Dichloro-2-hydroxy-phenyl)-N′-(2-hydroxy-4-methyl-phenyl)-oxalamide] yielded a melting point of 283 °C.

Compound `N#Cc1ccc(O)c(NC(=O)C(=O)Nc2cc(Cl)cc(Cl)c2O)c1` [Example 15, N-(5-Cyano-2-hydroxy-phenyl)-N′-(3,5-dichloro-2-hydroxy-phenyl)-oxalamide] returned a melting point of 298 °C.

For the compound `O=C(Nc1cc(-c2ccccc2)ccc1O)C(=O)Nc1cc(Cl)cc(Cl)c1O` [Example 5, N-(3,5-Dichloro-2-hydroxy-phenyl)-N′-(4-hydroxy-biphenyl-3-yl)-oxalamide], the melting point worked out at 288 °C.

`O=C(Nc1cc(Cl)cc(Cl)c1O)C(=O)Nc1c(O)ccc2ccccc12` [Example 8, N-(3,5-Dichloro-2-hydroxy-phenyl)-N′-(2-hydroxy-naphthalen-1-yl)-oxalamide] yielded a melting point of 265 °C.

In the case of `O=C(Nc1ccc(C(=O)NCCCn2ccnc2)cc1O)C(=O)Nc1cc(Cl)cc(Cl)c1O` [Example 43, N-(3,5-Dichloro-2-hydroxy-phenyl)-N′-[2-hydroxy-4-(3-imidazol-1-yl-propylcarbamoyl)-phenyl]-oxalamide], the melting point amounted to 225 °C.

`O=C(Nc1cc([N+](=O)[O-])ccc1O)C(=O)Nc1cc(Cl)cc(Cl)c1O` [Example 4, N-(3,5-Dichloro-2-hydroxy-phenyl)-N′-(2-hydroxy-5-nitro-phenyl)-oxalamide] registered a melting point of 386 °C.

Compound `CCC(C)(C)c1ccc(NC(=O)C(=O)Nc2cc(Cl)cc(Cl)c2O)c(O)c1` [Example 9, N-(3,5-Dichloro-2-hydroxy-phenyl)-N′-[4-(1,1-dimethyl-propyl)-2-hydroxy-phenyl]-oxalamide] showed a melting point of 260 °C.

As for `O=C(Nc1cc(Cl)cc(Cl)c1O)C(=O)Nc1ccc(F)c(F)c1O` [Example 20, N-(3,5-Dichloro-2-hydroxy-phenyl)-N′-(3,4-difluoro-2-hydroxy-phenyl)-oxalamide], the melting point was 302 °C.

As to `O=C(Nc1cc2ccccc2cc1O)C(=O)Nc1cc(Cl)cc(Cl)c1O` [Example 6, N-(3,5-Dichloro-2-hydroxy-phenyl)-N′-(3-hydroxy-naphthalen-2-yl)-oxalamide], the melting point worked out at 313 °C.

As for `O=C(Nc1cc(C(=O)NCc2ccncc2)ccc1O)C(=O)Nc1cc(Cl)cc(Cl)c1O` [Example 33, N-(3,5-Dichloro-2-hydroxy-phenyl)-N′-{2-hydroxy-5-[(pyridin-4-ylmethyl)-carbamoyl]-phenyl}-oxalamide], the melting point was determined as 250 °C.

`Cc1cccc(O)c1NC(=O)C(=O)Nc1cc(Cl)cc(Cl)c1O` [Example 10, N-(3,5-Dichloro-2-hydroxy-phenyl)-N′-(2-hydroxy-6-methyl-phenyl)-oxalamide] had a melting point of 260 °C.

Values taken from US20050124667A1, “Oxamide inhibitors of plasminogen activator inhibitor-1” (priority 2003, published 2005).
